The values that follow come from PMC11284787, “Ligand-Directed Labeling of the Adenosine A1 Receptor in Living Cells” (Journal of Medicinal Chemistry, 2024).

The structures appear in SMILES notation. Where two headings read alike, the source gives them in different places. Where only a bound is given, the exact number is not on record here.

For experiment [1], the target named is T1, NL-hA3AR (Homo sapiens, UniProt P0DMS8).
T1 construct: expressed in transfected cells
T1 sequence (P0DMS8 1-318): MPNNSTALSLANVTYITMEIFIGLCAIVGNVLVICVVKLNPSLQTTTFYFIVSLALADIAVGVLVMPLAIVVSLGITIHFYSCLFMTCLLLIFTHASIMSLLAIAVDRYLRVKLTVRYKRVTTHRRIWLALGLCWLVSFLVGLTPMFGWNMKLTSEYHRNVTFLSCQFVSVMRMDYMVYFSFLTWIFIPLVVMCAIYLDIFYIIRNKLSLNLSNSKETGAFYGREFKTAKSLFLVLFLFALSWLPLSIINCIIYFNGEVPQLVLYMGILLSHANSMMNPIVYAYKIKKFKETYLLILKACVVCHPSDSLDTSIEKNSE
Nature of the experiment: NanoBRET saturation ligand-binding assay, NL-hA3AR. The procedure: Probes 11 and 12 were further evaluated for their ability to bind the other three adenosine receptor subtypes (NL-A2AAR, NL-A2BAR, and NL-A3AR), and their ligand-binding properties were quantified in the NanoBRET saturation and inhibition binding assays, respectively (Table 1 and Figure 4).
NanoBRET binding assay. All NanoBRET experiments were performed in white flat […]
37 °C for kinetic binding experiments. Emissions were read at 420 nm (80 nm bandpass; […]
the SulfoCy5-labelled probe. […]
nm emission by the 420 nm emission. The term “raw BRET ratio” refers to the unprocessed data as no background ratio has been subtracted. In all NanoBRET binding […]
competitive antagonist selective for the adenosine receptor under investigation […]
MRS1220 for the A3AR). HEK293T cells stably/transiently expressing Nluc-AR were […]
were incubated for 1 h at 37 °C. […]
NanoBRET saturation binding assay. Total and nonspecific saturation binding curves were fit simultaneously using the following equation:
BRET ratio = Bmax[B] + M(B) + C […]
Uninhibited specific binding = 100 ― 100 x [A]
(In general: BRET reads energy transfer from a luciferase to a nearby fluorophore.)

In the next experiment the target is T2, NL-rA1AR (Rattus norvegicus, UniProt P25099).
T2 construct: expressed in transfected cells
T2 sequence (P25099 1-326): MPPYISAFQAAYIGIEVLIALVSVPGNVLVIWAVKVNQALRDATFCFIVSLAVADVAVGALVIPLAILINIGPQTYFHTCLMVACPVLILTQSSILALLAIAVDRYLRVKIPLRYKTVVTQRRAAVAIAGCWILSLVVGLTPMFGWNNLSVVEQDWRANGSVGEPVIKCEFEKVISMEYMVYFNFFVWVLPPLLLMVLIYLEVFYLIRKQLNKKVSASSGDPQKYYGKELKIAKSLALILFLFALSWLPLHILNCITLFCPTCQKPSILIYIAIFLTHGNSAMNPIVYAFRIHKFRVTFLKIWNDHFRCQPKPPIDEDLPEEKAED
As to the kind of experiment: NanoBRET competition ligand-binding assay (CA200645 tracer), NL-rA1AR.

The target of another experiment is T3, NL-hA1AR (Homo sapiens, UniProt P30542).
T3 construct: expressed in transfected cells
T3 sequence (P30542 1-326): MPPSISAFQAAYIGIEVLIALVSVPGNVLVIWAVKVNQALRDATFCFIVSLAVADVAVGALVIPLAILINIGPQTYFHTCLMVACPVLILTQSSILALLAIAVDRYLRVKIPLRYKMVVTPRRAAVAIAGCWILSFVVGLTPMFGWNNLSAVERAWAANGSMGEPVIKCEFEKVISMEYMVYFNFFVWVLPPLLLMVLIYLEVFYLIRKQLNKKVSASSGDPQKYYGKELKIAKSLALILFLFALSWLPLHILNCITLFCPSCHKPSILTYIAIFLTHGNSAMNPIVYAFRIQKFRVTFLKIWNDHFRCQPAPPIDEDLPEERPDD
As to the kind of experiment: NanoBRET competition ligand-binding assay (CA200645 tracer), NL-hA1AR.

Experiment [2] concerns the target T1, NL-hA3AR. Nature of the experiment: cell-based. Format: binding. The conditions noted are these: CA200645 (25 nM) tracer, HEK293T cells, mean ± SEM; read-out: affinity values pKi, NL-hA3AR (converted).
Another experiment deals with T4, NL-hA2AAR (Homo sapiens, UniProt P29274).
T4 construct: expressed in transfected cells; host or cells: HEK293T, transient transfection (FuGENE)
Nature of the experiment: NanoBRET competition ligand-binding assay (CA200645 tracer), NL-hA2AAR. Conditions: CA200645 (25 nM) tracer, transient HEK293T, mean ± SEM; read-out: affinity values pKi, NL-hA2AAR (converted).

T4 sequence (P29274 whole entry): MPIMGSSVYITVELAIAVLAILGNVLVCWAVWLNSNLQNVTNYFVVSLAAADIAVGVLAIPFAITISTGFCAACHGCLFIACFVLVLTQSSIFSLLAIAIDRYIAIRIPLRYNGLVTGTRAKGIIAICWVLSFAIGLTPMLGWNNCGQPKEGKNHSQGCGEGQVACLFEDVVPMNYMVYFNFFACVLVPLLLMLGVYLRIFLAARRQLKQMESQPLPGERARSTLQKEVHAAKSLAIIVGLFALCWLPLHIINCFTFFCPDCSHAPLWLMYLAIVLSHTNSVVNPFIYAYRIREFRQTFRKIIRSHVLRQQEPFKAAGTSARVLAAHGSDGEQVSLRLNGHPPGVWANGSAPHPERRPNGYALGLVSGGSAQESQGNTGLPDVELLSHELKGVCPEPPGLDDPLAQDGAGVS

Regarding `CCCCn1c(=O)c2[nH]c(C34CCC(C(=O)NCCNC(=O)CCNC(=O)c5ccc(OC(=O)CCCCC[N+]6=C(/C=C/C=C/C=C7/N(C)c8ccc(S(=O)(=O)O)cc8C7(C)C)C(C)(C)c7cc(S(=O)(=O)[O-])ccc76)c(F)c5)(CC3)CC4)nc2n(CCCC)c1=O` [Compound 11, 1-(6-(4-((3-((2-(4-(1,3-Dibutyl-2,6-dioxo-2,3,6,7-tetrahydro-1H-purin-8-yl)bicyclo[2.2.2]octane-1-carboxamido)ethyl)amino)-3-oxopropyl)carbamoyl)-2-fluorophenoxy)-6-oxohexyl)-3,3-dimethyl-2-((1E,3E)-5-((E)-1,3,3-trimethyl-5-sulfoindolin-2-ylidene)penta-1,3-dien-1-yl)-3H-indol-1-ium-5-sulfonate], the Kd at NL-hA3AR [1] (HEK293T cells stably expressing NL-hA3AR, read-out: affinity values pKD, NL-hA3AR (converted)) was over 1000 nM. Also, the “BRET signal detected at NL-A3AR” value at NL-hA3AR [1] (concentrations tested 0–500 nM) is listed as “minimal BRET signal”.

In the case of `CCCCn1c(=O)c2[nH]c(C34CCC(C(=O)NCCNC(=O)CCNC(=O)c5ccc(OC(=O)CCC(=O)NCCOCCOCCNC(=O)O[C@H]6CC/C=C/CCC6)c(F)c5)(CC3)CC4)nc2n(CCCC)c1=O` [Compound 12, 4-((3-((2-(4-(1,3-Dibutyl-2,6-dioxo-2,3,6,7-tetrahydro-1H-purin-8-yl)bicyclo[2.2.2]octane-1-carboxamido)ethyl)amino)-3-oxopropyl)carbamoyl)-2-fluorophenyl (R,E)-1-(Cyclooct-4-en-1-yloxy)-1,12-dioxo-5,8-dioxa-2,11-diazapentadecan-15-oate], the Ki on NL-rA1AR (CA200645 (25 nM) tracer, HEK293T cells, mean ± SEM, read-out: affinity values pKi, NL-rA1AR (converted)) was 10.2 nM; at NL-rA1AR (supplementary CSV, read-out: AFFINITY (A1AR_rat) pKi (converted)), 8.32 nM; on NL-hA1AR (CA200645 (25 nM) tracer, HEK293T cells, mean ± SEM, read-out: affinity values pKi, NL-hA1AR (converted)) it was 13.5 nM; on NL-hA3AR [2], over 10000 nM; on NL-hA2AAR, 1380 nM. The “greater affinity for NL-A1AR over NL-A2AAR (competition binding)” value at NL-hA1AR (selectivity from pKi values) is on record as 104 fold. Moreover, the “greater affinity for NL-A1AR over NL-A2BAR (competition binding)” value on NL-hA1AR (selectivity from pKi values) was found to be 61 fold. Besides, at NL-hA1AR (selectivity from pKi values), the “greater affinity for NL-A1AR over NL-A3AR (competition binding)” value turned out to be 857 fold.
